Experimental data: paper PMC7297664 (2020)

Tests used:
[1] = tested on: RNA 12 (8-oxoG at G11) (RNA, aptamer, 7,8-dihydro-8-oxoguanosine at 11) GGCGAUACCAGCCGAAAGGCCCUUGGCAGCGUC; assay: MST binding check; conditions: Na+ 150 mM (NaCl), 10 nM RNA
[2] = tested on: RNA 1 (canonical theophylline aptamer) (RNA, aptamer) GGCGAUACCAGCCGAAAGGCCCUUGGCAGCGUC; assay: ITC; conditions: conditions as previously reported (cited)
[3] = tested on: RNA 9 (canonical theophylline aptamer, Cy5) (RNA, aptamer) GGCGAUACCAGCCGAAAGGCCCUUGGCAGCGUC; assay: microscale thermophoresis (MST); conditions: Na+ 150 mM (NaCl); TBS: 50 mM Tris-HCl pH 7.5; 10 nM RNA; incubated in ice
[4] = tested on: RNA 11 (8-oxoG at G26) (RNA, aptamer, 7,8-dihydro-8-oxoguanosine at 26) GGCGAUACCAGCCGAAAGGCCCUUGGCAGCGUC; assay: MST binding check; conditions: Na+ 150 mM (NaCl), 10 nM RNA
[5] = tested on: RNA 10 (8-oxoG at G25) (RNA, aptamer, 7,8-dihydro-8-oxoguanosine at 25) GGCGAUACCAGCCGAAAGGCCCUUGGCAGCGUC; assay: MST binding check; conditions: Na+ 150 mM (NaCl); TBS: 50 mM Tris-HCl pH 7.5; 10 nM RNA; up to 11.25 mM
[6] = tested on: RNA 9 (canonical theophylline aptamer, Cy5) (RNA, aptamer) GGCGAUACCAGCCGAAAGGCCCUUGGCAGCGUC; assay: MST binding check; conditions: Na+ 150 mM (NaCl), 10 nM RNA
[7] = tested on: RNA 10 (8-oxoG at G25) (RNA, aptamer, 7,8-dihydro-8-oxoguanosine at 25) GGCGAUACCAGCCGAAAGGCCCUUGGCAGCGUC; assay: microscale thermophoresis (MST); conditions: Na+ 150 mM (NaCl); TBS pH 7.5, up to 5% DMSO; up to 1 mM; incomplete curve, solubility; abstract gives ≈160 μM
[8] = TBS: 50 mM Tris-HCl pH 7.5, up to 11.25 mM
[9] = TBS pH 7.5, up to 5% DMSO, up to 1 mM

Row | SMILES | binding [1, 8] | Kd ([2]; mean of two runs, 0.72 and 1.98 μM) [µM] | Kd [3] [µM] | binding [4, 8] | binding [5] | binding [6, 8] | binding ([2]; printed Kd = NA) | Kd [7] [µM] | binding [4, 9] | binding [1, 9] | binding [6, 9]
1 | Cn1c(=O)c2[nH]cnc2n(C)c1=O | no | 1.35 | 29 ± 35 | – | – | – | – | – | – | – | –
2 | Cn1c(=O)c2c(ncn2C)n(C)c1=O | no | – | – | no | no | no | no | – | – | – | –
3 | Cn1cnc2c1c(=O)[nH]c(=O)n2C | – | – | – | – | – | – | – | > 160 | no | no | no
